This note sets out measurements from patent US20260265244A1, “HETEROCYCLIC COMPOUNDS AS STING ANTAGONISTS” (Boehringer Ingelheim International GmbH, priority 2022, published 2026).

As a reminder, the IC50 is the point on the concentration scale where inhibition reaches its midpoint. Higher therefore signals weaker potency in that assay.

The target of assay [1] is T1, human STING WT (R232) (Homo sapiens, UniProt Q86WV6, H232R).
T1 construct: purchased Cisbio 64BDSTGPEG
The experiment in a line: Human STING HTRF binding assay (competitive, Cisbio 64BDSTGPEG). As to the method:
Binders to human STING WT (R232) were identified using a competitive HTRF assay format (Cisbio 64BDSTGPEG), which uses d2-labeled STING ligand, a 6His (SEQ ID NO: 2) tagged human STING protein, and an anti 6His (SEQ ID NO: 2) Cryptate-labeled antibody. Compounds compete with the STING ligand-d2 and thereby prevents FRET from occurring, which can be measured by an EnVision™ reader (PerkinElmer).
Assay method: Compounds were delivered as 10 mM DMSO solution, serially diluted by an Agilent Bravo Workstation and transferred to the 384 well assay plate (Perkin Elmer #6005359) using a Cybiwell dispenser. Typically, 8 concentrations were used with the highest concentration at 10 μM or 1 μM in the final assay volume followed by ~1:5 dilution steps. DMSO concentration was set to 1% in the final assay volume. The 384 well assay plate contained 20 test compounds and DMSO in column 23 and 24. A cGAMP standard dilution row was prepared according to the manufacturer and transferred to each assay plate. After transfer of compound solution or dilution buffer for negative (high) and positive (low) controls, 5 μl of the human STING protein (cyclic binding domain (residues 138-379) of the WT R232 human version, fused to a 6 His tag (SEQ ID NO: 2) at the Nter part; 1:50 dilution in detection buffer) were dispensed to all wells except of the positive control, which received detection buffer only. Plates were the centrifuged for 20 sec at 1000 rpm. After that, 10 μl of Anti-6His-Cryptate antibody/Sting ligand-d2 mix was added to all wells using a Multidrop combi dispenser, followed by another sec/1000 rpm centrifugation step. After an incubation of the plates for 180 min at room temperature, […] at […] (HTRF ratio) was measured using an Envison Reader (PerkinElmer).
Data evaluation and calculation: For data evaluation and calculation, HTRF ratios were calibrated using the cGAMP standard curve. After that, the measurement of the low control was set as 0% control and the measurement of the high control was set as 100% control. The IC50 values were calculated using the standard 4 parameter logistic regression formula. Calculation: [y=(a−d)/(1+(x/c)^b)+d], a=low value, d=high value; x=conc M; c=IC50 M; b=slope;
For orientation: In TR-FRET formats the signal depends on donor and acceptor labels being close together.

For assay [2], the system named is STING inhibition in human whole blood (IFNα2α production). The experiment in a line: Human whole blood assay (HWBA): cGAMP-stimulated IFNα2α production. The conditions noted are these: Homo sapiens. In kind it is cell-based. As to the method: For the detection of STING inhibition in physiological environment human whole blood was stimulated by the cyclic dinucleotide cGAMP. Pathway activity was monitored by measuring the IFNα2α production.
Assay method: Compounds were delivered as 10 mM DMSO solution and serial diluted and transferred to the 96-well Cell culture Plate (Corning #3595), prefilled with 20 μl OptiMEM (Gibco #11058-021) in each well, using an Echo acoustic dispenser. Typically, 8 concentrations were used with the highest concentration at 10 μM in the final assay volume followed by ~1:5 dilution steps. DMSO concentration was set to 0.1% in the final assay volume. The 96 well assay plate contained 9 test compounds, a reference compound and DMSO in control wells.
Collection of human whole blood from 3 or more healthy donors (male or female, no medication for 7 days, exception contraceptive and thyroxine) as Na-citrate blood (e.g. 3.8% in Monovettes from Sarstedt) is conducted in parallel. Whole blood was kept at room temperature for a maximum of 3 hours after collection until use in the assay.
160 μl of the whole blood samples were transferred to each well of the 96-well assay plates filled with compound/OptiMEM. All assay plates are prepared as duplicates with blood from different donors. Blood plates were kept at room temperature for 60 minutes and continuous shaking with 450 rpm, covered with the lid, but not sealed.
A 10× cGAMP assay solution was diluted from a 2 mM stock solution in 1×HBSS immediately before use at room temperature. 20 μl of the 10× cGAMP/HBSS were added to all compound and all high control wells, whereas HBSS only was added to all low control wells.
After covering assay plates with aera seals and the lid, blood plates were kept at room temperature for 30 minutes and continuous shaking with 450 rpm, followed by an overnight incubation of 22 h at 37° C. in the incubator, without shaking.
For the detection of IFNα-2α in human plasma, the biotinylated capture antibody (Antibody set IFNA2, Meso Scale Diagnostics #B21VH-3, including coating and capture antibody) was diluted 1:17.5 in Diluent 100 (Meso Scale Diagnostics #R50AA-4, according to the manufacturer. U-Plex MSD GOLD 96-well Small Spot Streptavidin SECTOR Plates (Meso Scale Diagnostics #L45SA-5) were coated with 25 μl diluted capture antibody. Coated plates were incubated for 60 min at room temperature under continuous shaking at 700 rpm. MSD IFNα-2α plates were washed three times with 150 μl wash buffer (1×HBSS, 0.05% Tween).
After blocking the plates with 100 μl block solution/well (1×HBSS with 0.2% Tween, 2% BSA) for 60 min at room temperature and continuous shaking at 700 rpm, plates were emptied as dry as possible by dumping just before continuing with the human plasma. Whole Blood assay plates were centrifuged at 1600 rpm for 10 minutes. 25 μl of supernatant was transferred with a pipetting robotics from each whole blood plate to the corresponding IFNα-2α plate. Plates were sealed with microplate seals and kept at room temperature again under continuous shaking at 700 rpm for two hours. Next MSD IFNα-2α plates were washed three times with 150 μl wash buffer (1×HBSS, 0.05% Tween), before adding 25 μl MSD SULFO-TAG IFNα-2α Antibody solution (1:100 diluted in Diluent 3 (Meso Scale Diagnostics #R50AP-2) to each well of the plates. Afterwards plates were sealed with microplate seals and kept at room temperature again under continuous shaking at 700 rpm for two hours. Finally MSD IFNα-2α plates were washed three times with 150 μl wash buffer (1×HBSS, 0.05% Tween). 150 μl 2×Read buffer was added to each well and plates were immediately measured with the MSD Sector S600 Reader using the vendor barcode.
Data evaluation and calculation: For data evaluation and calculation, % control calculation of each well was based on the mean of high (cGAMP stimulated control) and mean of low (unstimulated control) controls by using the following formula: […]

T1 sequence (Q86WV6 138-379 H232R): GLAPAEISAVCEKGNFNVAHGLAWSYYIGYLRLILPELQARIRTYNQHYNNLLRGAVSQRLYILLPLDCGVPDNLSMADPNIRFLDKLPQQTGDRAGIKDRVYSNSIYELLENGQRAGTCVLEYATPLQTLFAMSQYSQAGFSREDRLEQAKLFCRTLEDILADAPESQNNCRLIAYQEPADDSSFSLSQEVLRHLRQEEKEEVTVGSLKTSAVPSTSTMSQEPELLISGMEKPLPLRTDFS

For `Cn1c(-c2cc3cn(CCN4CCOCC4)nc3nc2C2CC2)nc(-c2cccc3nn(C[C@H](O)c4ccccc4)cc23)c1C1CC1` [Example 10, (1R)-2-[4-(5-cyclopropyl-2-{6-cyclopropyl-2-[2-(morpholin-4-yl)ethyl]-2H-pyrazolo[3,4-b]pyridin-5-yl}-1-methyl-1H-imidazol-4-yl)-2H-indazol-2-yl]-1-phenylethan-1-ol], the IC50 in assay [1] came out at 9.3 nM; in assay [2], 69 nM.
For `Cn1cc2cc(-c3nc(-c4cccc5nn(C[C@H](O)c6ccccc6)cc45)c(C4CC4)n3C)c(C3CC3(F)F)nc2n1` (stereo partly drawn) [Example 110, (1R)-2-(4-{5-cyclopropyl-2-[6-(2,2-difluorocyclopropyl)-2-methyl-2H-pyrazolo[3,4-b]pyridin-5-yl]-1-methyl-1H-imidazol-4-yl}-2H-indazol-2-yl)-1-phenylethan-1-ol], the IC50 in assay [1] was 8.3 nM; in assay [2] it was 85 nM.
Turning to `CNCc1nc2nn(C)cc2cc1-n1nc(-c2cccc3nn(C[C@H](O)c4ccccc4)cc23)c(C(C)C)c1C` [Example 42, (1R)-2-[4-(5-methyl-1-{2-methyl-6-[(methylamino)methyl]-2H-pyrazolo[3,4-b]pyridin-5-yl}-4-(propan-2-yl)-1H-pyrazol-3-yl)-2H-indazol-2-yl]-1-phenylethan-1-ol], the half-maximal inhibitory concentration (IC50) in assay [1] was determined as 16.7 nM; in assay [2] it was 140 nM.
Regarding `CCc1nc2nn(C)cc2cc1-c1nc(-c2cccc3nn(C[C@H](F)c4ccc(Cl)cc4)cc23)c(C2CC2)n1C` [Example 72, 2-[(2R)-2-(4-chlorophenyl)-2-fluoroethyl]-4-(5-cyclopropyl-2-{6-ethyl-2-methyl-2H-pyrazolo[3,4-b]pyridin-5-yl}-1-methyl-1H-imidazol-4-yl)-2H-indazole], the IC50 amounted to 17.6 nM in assay [1] and 400 nM in assay [2].
For `COc1ccc(Cn2cc3cc(-c4nc(-c5cccc6nn(C[C@H](O)c7ccccc7)cc56)c(C5CC5)n4C)c(C4CC4)nc3n2)cc1` [Example 9, (1R)-2-[4-(5-cyclopropyl-2-{6-cyclopropyl-2-[(4-methoxyphenyl)methyl]-2H-pyrazolo[3,4-b]pyridin-5-yl}-1-methyl-1H-imidazol-4-yl)-2H-indazol-2-yl]-1-phenylethan-1-ol], in that order: 14.1 nM and 63 nM.
As to `Cc1nc2nn(CCO)cc2cc1-n1nc(-c2cccc3nn(C[C@H](O)c4ccccc4)cc23)c(C(C)C)c1C` [Example 37, (1R)-2-(4-{1-[2-(2-hydroxyethyl)-6-methyl-2H-pyrazolo[3,4-b]pyridin-5-yl]-5-methyl-4-(propan-2-yl)-1H-pyrazol-3-yl}-2H-indazol-2-yl)-1-phenylethan-1-ol], the IC50 in assay [1] was found to be 5.5 nM; in assay [2], 130 nM.
Take `Cn1cc2cc(-c3nc(-c4cccc5nn(C[C@H](O)c6ccc(O)cc6)cc45)c(C4CC4)n3C)c(C3CC3)nc2n1` [Example 55, 4-[(1R)-2-[4-(5-cyclopropyl-2-{6-cyclopropyl-2-methyl-2H-pyrazolo[3,4-b]pyridin-5-yl}-1-methyl-1H-imidazol-4-yl)-2H-indazol-2-yl]-1-hydroxyethyl]phenol]: the IC50 in assay [1] came out at 3.7 nM; in assay [2] it was 200 nM.
As for `Cc1nc2nn(C)cc2cc1-n1nc(-c2cccc3nn(C[C@H](OCC4CC4)c4ccccc4)cc23)c(C(C)C)c1C` [Example 63, 2-[(2R)-2-(cyclopropylmethoxy)-2-phenylethyl]-4-(1-{2,6-dimethyl-2H-pyrazolo[3,4-b]pyridin-5-yl}-5-methyl-4-(propan-2-yl)-1H-pyrazol-3-yl)-2H-indazole], the values for the IC50 in assay [1] and in assay [2] were 39.8 nM and 300 nM, respectively.
`Cn1cc2cc(-c3nc(-c4cccc5nn(C[C@H](O)c6ccc(OC7COC7)cc6)cc45)c(C4CC4)n3C)c(C3CC3)nc2n1` [Example 69, (1R)-2-[4-(5-cyclopropyl-2-{6-cyclopropyl-2-methyl-2H-pyrazolo[3,4-b]pyridin-5-yl}-1-methyl-1H-imidazol-4-yl)-2H-indazol-2-yl]-1-[4-(oxetan-3-yloxy)phenyl]ethan-1-ol]: the IC50 is 7.5 nM in assay [1] and 360 nM in assay [2].
The corresponding values for `COCCn1cc2cc(-n3nc(-c4cccc5nn(C[C@H](O)c6ccccc6)cc45)c(C(C)C)c3C)c(C)nc2n1` [Example 16, (1R)-2-(4-{1-[2-(2-methoxyethyl)-6-methyl-2H-pyrazolo[3,4-b]pyridin-5-yl]-5-methyl-4-(propan-2-yl)-1H-pyrazol-3-yl}-2H-indazol-2-yl)-1-phenylethan-1-ol] are 6.6 nM and 79 nM.
With `Cn1c(-c2cc3cn(CCCN4CCCC4=O)nc3nc2C2CC2)nc(-c2cccc3nn(C[C@H](O)c4ccccc4)cc23)c1C1CC1` [Example 28, 1-{3-[6-cyclopropyl-5-(5-cyclopropyl-4-{2-[(2R)-2-hydroxy-2-phenylethyl]-2H-indazol-4-yl}-1-methyl-1H-imidazol-2-yl)-2H-pyrazolo[3,4-b]pyridin-2-yl]propyl}pyrrolidin-2-one], the IC50 turned out to be 8.4 nM in assay [1] and 110 nM in assay [2].
For the molecule `Cc1nc2nn(CCCN3CCCC3=O)cc2cc1-n1nc(-c2cccc3nn(C[C@H](O)c4ccccc4)cc23)c(C(C)C)c1C` [Example 21, 1-{3-[5-(3-{2-[(2R)-2-hydroxy-2-phenylethyl]-2H-indazol-4-yl}-5-methyl-4-(propan-2-yl)-1H-pyrazol-1-yl)-6-methyl-2H-pyrazolo[3,4-b]pyridin-2-yl]propyl}pyrrolidin-2-one], the values for the IC50 in assay [1] and in assay [2] were 4.9 nM and 85 nM, respectively.
With `Cc1c(C(C)C)c(-c2cccc3nn(C[C@H](O)c4ccccc4)cc23)nn1-c1cc2cn(C)nc2nc1C1CCOCC1` [Example 73, (1R)-2-(4-{5-methyl-1-[2-methyl-6-(oxan-4-yl)-2H-pyrazolo[3,4-b]pyridin-5-yl]-4-(propan-2-yl)-1H-pyrazol-3-yl}-2H-indazol-2-yl)-1-phenylethan-1-ol], the IC50 in assay [1] was 11.4 nM; in assay [2], 440 nM.
